Tests used:
[1] = Test-tube comparison of SFA (F6H8) and common remedies on about 100 mg human ear wax (Example 2); parameters: key to Effects on Ear Wax (Cerumen) Samples: NC, No Change; BP, Bubbles Produced; SG, Softening; FD, Fully Dispersed; settings: for Effects on Ear Wax (Cerumen) Samples: Human; for Visible changes to ear wax samples (in words): human, 30 seconds with gentle agitation
Protocol: (§1) Approximately 100 mg of human ear wax was weighed into each of four small test tubes and numbered 1-4. In a second series, approximately 100 mg of animal cerumen from dogs was placed into four different test tubes and numbered 5-8. About 1 ml of the following material was then added to the respective dishes as follows: (1) to tubes #1 and 5, F6H8; (2) to tubes #2 and 6, hydrogen peroxide, 3%; (3) to tubes #3 and 7, carbamide peroxide, 6.5% (Murine Earwax Removal Drops); and (4) to tubes #4 and 8, sodium bicarbonate, 5% (prepared by dissolved 5 grams of sodium bicarbonate in 100 ml of distilled water. Results of these studies are presented in Table 1, below.

[2] = Test-tube comparison of SFA (F6H8) and common remedies on about 100 mg dog cerumen (Example 2); parameters: key to Effects on Ear Wax (Cerumen) Samples: NC, No Change; BP, Bubbles Produced; SG, Softening; FD, Fully Dispersed; settings: for Effects on Ear Wax (Cerumen) Samples: Dog; for Visible changes to ear wax samples (in words): dog, 30 seconds with gentle agitation
Protocol: as §1

accumulation of ear wax [3] = assay: Prophylaxis to prevent or retard accumulation of ear wax, one human (Example 4); assay type: in vivo
Protocol: (§2) The effectiveness of F6H8 as a prophylaxis to prevent or retard accumulation of ear wax was evaluated in one human and one dog. The ear canal of the person and the canine were cleaned thoroughly prior to the evaluation of prophylaxis with SFA. Then, on a regular basis (five of seven days on average), 20-25 ul of F6H8 were applied to a cotton bud and the right ear only of each subjects was gently swabbed for about 15 seconds. In each instance, the contralateral ear served as a control in this study. […] Visual observation was confirmed by using a clean cotton bud to swab each ear of both subjects for 10-15 seconds.

[4] = Cotton bud laden with human ear wax swirled through about 1 ml F6H8 (initial studies, Example 1); settings: human cerumen on cotton bud swirled or shaken in F6H8; hair particles etc. not dissolved
Description: (§3) In these studies, which are reflected below in Table 1, samples of ear wax were collected on cotton buds from animals or humans. A portion of each sample was placed into a small tube containing an SFA (F6H8) and gently shaken.
(§4) The invention is based in substantial part upon initial studies that provided surprising results. A small quantity of F6H8 semi-fluorinated alkane was placed into each of 5 test tubes. Samples of cerumen from animal or human ears were collected on cotton buds. Sufficient ear wax was collected that quantities of the material were visible on cotton buds used to harvest the materials. Separate cotton buds were used to collect cerumen from four dogs and two humans. In a step-wise manner, one cotton bud, laden with ear wax, was gently swirled through a single test tube containing an aliquot of F6H8 SFA. The study was repeated three times for cotton buds with ear wax from dogs and a second series of two tests, as previously described, were carried-out with cotton buds laden with human cerumen. […] Importantly, in the study the cerumen was dissolved by the SFA but the other matter (hair particles, etc.) were not dissolved. […] Such products include MURINE® Ear Drops, DEBROX® Earwax Removal, Flents Earwax Remover, and CERUMENEX® and also includes patents for compositions containing glycerin, glycols, peroxide plus urea and cyclodextrin containing compositions. […]

[5] = Cotton bud laden with dog ear wax swirled through about 1 ml F6H8 (initial studies, Example 1); settings: dog cerumen on cotton bud swirled or shaken in F6H8; hair particles etc. not dissolved
Description: as §3, §4

accumulation of ear wax [6] = assay: Prophylaxis to prevent or retard accumulation of ear wax, one dog (Example 4); assay type: in vivo
Protocol: as §2

[7] = 30 Seconds, about 1 ml on approx. 100 mg ear wax, gentle agitation
[8] = 30 Seconds, about 1 ml on approx. 100 mg cerumen, gentle agitation
[9] = 20-25 ul on cotton bud, about five of seven days, end of three month trial
[10] = swab 10-15 seconds at end of three month trial

| Structure (SMILES) | Effects on Ear Wax (Cerumen) Samples ([1]; 5 Minutes) | Effects on Ear Wax (Cerumen) Samples ([1]; 15 Minutes) | Effects on Ear Wax (Cerumen) Samples [1, 7] | Visible changes to ear wax samples (in words) [1] | Effects on Ear Wax (Cerumen) Samples ([2]; 5 Minutes) | Effects on Ear Wax (Cerumen) Samples ([2]; 15 Minutes) | Effects on Ear Wax (Cerumen) Samples [2, 8] | Visible changes to ear wax samples (in words) [2] | Visual observation of treated right ear vs untreated contralateral ear (accumulation of ear wax [3]; [9]) | Ear wax collected by clean cotton bud from treated right ear vs untreated left ear (accumulation of ear wax [3]; [10]) | Dissolution of cerumen from the ear wax sample (in words) [4] | Dissolution of cerumen from the ear wax sample (in words) [5] | Visual observation of treated right ear vs untreated contralateral ear (accumulation of ear wax [6]; [9]) | Ear wax collected by clean cotton bud from treated right ear vs untreated left ear (accumulation of ear wax [6]; [10]) |
| --- | --- | --- | --- | --- | --- | --- | --- | --- | --- | --- | --- | --- | --- | --- |
| OO [Hydrogen Peroxide, 3%, hydrogen peroxide] | BP | SG and BP, | NC | failed to produce visible changes | BP | SG and BP, | NC | failed to produce visible changes | – | – | – | – | – | – |
| CCCCCCCCC(F)(F)C(F)(F)C(F)(F)C(F)(F)C(F)(F)C(F)(F)F [SFA (F6H8)] | FD | FD | FD | – | FD | FD | FD | – | visibly cleaner and contained less ear wax and associated hair and other debris | collected less ear wax | dissolved completely | dissolved completely | visibly cleaner and contained less ear wax and associated hair and other debris | collected less ear wax |
| O=C([O-])O.[Na+] [Sodium Bicarbinate, 5%, sodium bicarbonate] | NC | NC | NC | failed to produce visible changes | NC | NC | NC | failed to produce visible changes | – | – | – | – | – | – |

Reference: patent US20200390722A1, “COMPOSITIONS AND METHODS FOR THE REMOVAL OF EAR WAX” (Specialty Drug and Device, LLC, priority 2016, published 2020)
